Measured values taken from the Deep4Chem optical property database.

Assay: solvent given as SMILES

Work on CCCCCCC1(CCCCCC)c2cc(-c3ccc(-c4ccc(-c5ccc(-c6ccc7c(c6)C(CCCCCC)(CCCCCC)c6cc(-n8c9ccc(-n%10c%11ccccc%11c%11ccccc%11%10)cc9c9cc(-n%10c%11ccccc%11c%11ccccc%11%10)ccc98)ccc6-7)s5)c5nsnc45)s3)ccc2-c2ccc(-n3c4ccc(-n5c6ccccc6c6ccccc65)cc4c4cc(-n5c6ccccc6c6ccccc65)ccc43)cc21 yielded an absorption maximum (in ClCCl) of 514 nm.

Compound COC(=O)C1(C(=O)OC)Cc2c(C#Cc3ccccc3)c(-c3ccccc3)c3c(-c4ccccc4)c(-c4ccccc4)c(-c4ccccc4)c(-c4ccccc4)c3c2C1 has an absorption maximum (in C1CCOC1) of 339.52 nm.

COc1ccc(-c2cc3c(ccc4sc5ccc6sc(-c7ccc(C#N)cc7)cc6c5c43)s2)cc1 gave an absorption maximum (in ClCCl) of 383 nm.

O=C1Cc2cc3c(cc2CCCc2ccc(cc2)CCC3)CC(=O)Cc2ccc(c3nsnc23)C1 showed an absorption maximum (in C1CCCCC1) of 401 nm, an absorption maximum (in CC#N) of 404 nm and an absorption maximum (in ClC(Cl)Cl) of 404 nm.

Compound CC(C)(C)Nc1cc2oc3cc(NC(C)(C)C)c(F)cc3c(=O)c2cc1F has an absorption maximum (in CCO) of 368 nm.

CCn1c2ccccc2c2ccc(-c3ccc(OC)cc3)cc21 showed an absorption maximum (in C1CCCCC1) of 310 nm.

With CC(=O)c1c(N[C@@H](CC(C)C)C(=O)O)c2ccc(N(C)C)cc2oc1=O the absorption maximum (in ClCCl) was 372 nm.

For COC(=O)[C@@H]1C(=O)Oc2ccccc2[C@H]1c1c[nH]c2ccccc12, the absorption maximum (in CS(C)=O) was 284 nm.

With O=C(O)c1cc(O)c(O)c(O)c1 the absorption maximum (in O) was 258 nm.

Cc1ccc(CN2/C(=C/C=C3\CCCC(/C=C/C4=[N+](Cc5ccc(C)cc5)c5ccccc5C4(C)C)=C3Cl)C(C)(C)c3ccccc32)cc1 gave an absorption maximum (in CO) of 785 nm.

c1ccc(-c2ccc3c(c2)c2cc(-c4ccccc4)ccc2n3-c2ccc3c(c2)c2cc(-n4c5ccc(-c6ccccc6)cc5c5cc(-c6ccccc6)ccc54)ccc2n3-c2ccc(-c3nc(-c4ccccc4)nc(-c4ccccc4)n3)cc2)cc1 gave an absorption maximum (in Cc1ccccc1) of 362 nm.

Cc1ccc(-c2cnc3nn4ccccc4c3n2)cc1 showed an absorption maximum (in C1CCOC1) of 400 nm.

For COc1ccc(C(=O)/C=C/c2ccc(N(C)C)cc2)cc1OC, the absorption maximum (in C1CCOC1) was 403 nm, the absorption maximum (in CC#N) was 412 nm and the absorption maximum (in CC(=O)O) was 426 nm. The absorption maximum (in CC(C)=O) was 408 nm, the absorption maximum (in CCO) was 419 nm and the absorption maximum (in CN(C)C=O) was 416 nm. It also gave an absorption maximum (in CO) of 421 nm, an absorption maximum (in Cc1ccccc1) of 404 nm and an absorption maximum (in ClC(Cl)Cl) of 417 nm. For the same compound, the absorption maximum (in c1ccccc1) was 406 nm.

Work on c1ccc2c(c1)c1ccccc1n2-c1ccc2c(c1)c1ccccc1n2-c1cc2c3ccccc3n3c4ccccc4c(c1)c23 yielded an absorption maximum (in C1CCOC1) of 344 nm.

In the case of O=C(O)CCCCCn1c2ccccc2c(=O)c2cc(F)ccc21, the absorption maximum (in O) is reported as 420 nm.

Compound CCOC(=O)c1ccc(C2=Cc3ccccc3P2(=O)c2ccccc2)cc1 (stereo not drawn) has an absorption maximum (in ClCCl) of 353 nm.

In the case of CC1=CC(C)=[N+]2C1=Cc1c3ccccc3c(-c3[nH]c(C)cc3C)n1[B-]2(F)F, the absorption maximum (in ClCCl) is reported as 609 nm.

Compound CCOC(=O)CCCCCn1c2ccc(F)cc2c(=O)c2cc3c(cc21)c(=O)c1cc(F)ccc1n3CCCCCC(=O)OCC has an absorption maximum (in CO) of 540 nm.

With CCNc1cc2oc(=O)cc(C)c2cc1C the absorption maximum (in CC#N) was 354 nm.

Compound CCN(CC)c1ccc2cc(/C=C/C(=C(C#N)C#N)c3ccc(N(c4ccccc4)c4ccccc4)cc3)c(=O)oc2c1 has an absorption maximum (in CC(C)=O) of 516 nm, an absorption maximum (in CCOC(C)=O) of 507 nm and an absorption maximum (in CN(C)C=O) of 528 nm. It also gave an absorption maximum (in CS(C)=O) of 536 nm, an absorption maximum (in Cc1ccccc1) of 493 nm and an absorption maximum (in ClCCl) of 518 nm.

For O=C1OC(c2ccccc2)=C/C1=C\c1ccc([N+](=O)[O-])cc1, the absorption maximum (in C1COCCO1) was 416 nm.

With COc1ccc(C2=Cc3ccc4ccccc4[n+]3[B-](F)(F)O2)cc1 the absorption maximum (in ClC(Cl)Cl) was 439 nm.

Work on N#Cc1c(N2CCCCC2)cc(-c2cccs2)c2c1-c1cccc3cccc-2c13 yielded an absorption maximum (in O) of 458 nm.

With COC(=O)c1ccc(C#Cc2c3c(c4c(-c5ccccc5)c(-c5ccccc5)c(-c5ccccc5)c(-c5ccccc5)c4c2-c2ccc(C(=O)OC)cc2)CC(C(=O)OC)(C(=O)OC)C3)cc1 the absorption maximum (in C1CCOC1) was 347.38 nm.

Work on CC(C)(C)c1ccc(-c2nc3c4ccc(-c5cc6ccccc6c6ccccc56)cc4c4cc(-c5cc6ccccc6c6ccccc56)ccc4c3n2-c2ccc(C(C)(C)C)cc2)cc1 yielded an absorption maximum (in C1CCOC1) of 325 nm, an absorption maximum (in C1COCCO1) of 325 nm and an absorption maximum (in CC#N) of 324 nm. For the same compound, the absorption maximum (in CCCCCC) was 325 nm, the absorption maximum (in CCCCOCCCC) was 326 nm and the absorption maximum (in CCN(CC)CC) was 325 nm. For the same compound, the absorption maximum (in CCOC(C)=O) was 324 nm, the absorption maximum (in CCOCC) was 234 nm and the absorption maximum (in CN(C)C=O) was 328 nm. The absorption maximum (in Cc1ccccc1) was 327 nm, the absorption maximum (in ClC=C(Cl)Cl) was 327 nm and the absorption maximum (in ClCCl) was 328 nm.

For Cc1cc(C)c(C2=C3C=CC=[N+]3[B-]3(c4ccc5ccc6cccc7ccc4c5c67)Oc4cc(O)cc5c6ccc(C)cc6c6cc2n3c6c45)c(C)c1 (stereo not drawn), the absorption maximum (in ClC(Cl)Cl) was 647 nm.

CCCCC(CC)COc1cc(OCC(CC)CCCC)c2c#cc3ccc4oc5ccc(c#cc6cc(c#cc7ccc8oc9ccc(c#cc1c2)cc9c8c7)c(C(CCCC)OCCC)cc6C(CCCC)OCCC)cc5c4c3 (stereo not drawn) showed an absorption maximum (in ClCCl) of 328 nm.

CCCCCCc1cc2c(s1)-c1cc3c(cc1NB2c1ccccc1)-c1sc(CCCCCC)cc1B(c1ccccc1)N3 showed an absorption maximum (in ClCCl) of 412 nm.

In the case of c1ccc(-c2ccc(-c3ccccc3)s2)cc1, the absorption maximum (in C1CCOC1) is reported as 341 nm.

O=c1c2cc(F)c(O)cc2n(Cc2ccccc2)c2cc(O)c(F)cc12 showed an absorption maximum (in CCO) of 381 nm.

c1csc(-c2ccc(-c3cccs3)c3nsnc23)c1 gave an absorption maximum (in ClC(Cl)Cl) of 445 nm.

COC(=O)C(C)NC(=O)CCNc1cccc2ccccc12 (stereo not drawn) gave an absorption maximum (in CCO) of 331 nm.

Compound COc1ccc(/C=C/c2cc(/C=C/c3ccc(OC)cc3)nc(/C=C/c3ccc(N(C)C)cc3)n2)cc1 has an absorption maximum (in ClCCl) of 370 nm.

Work on CC(C)[Si](C#Cc1c2ccccc2c(C#C[Si](C(C)C)(C(C)C)C(C)C)c2nc3c(nc12)C1c2ccccc2C3c2ccccc21)(C(C)C)C(C)C yielded an absorption maximum (in CCCCCC) of 445 nm.

For CC1(C)Nc2cc3nc4cc(Cl)c(Cl)cc4nc3cc2N1, the absorption maximum (in CCO) was 471 nm.

With CC1=C(c2ccc(N(C)C)cc2)C(C)=[N+]2C1=C(c1c(-c3ccccn3)nc3ccccn13)c1c(C)cc(C)n1[B-]2(F)F the absorption maximum (in ClCCl) was 538 nm.

Compound C(=C\c1nc2c(c(N3CCOCC3)n1)CCCC2)/c1ccccc1 has an absorption maximum (in ClCCl) of 284 nm.

COc1cccc(OC)c1-c1c2ccc(=[N+]3CCN(C(=O)OC(C)(C)C)CC3)cc-2oc2cc(N3CCN(C(=O)OC(C)(C)C)CC3)ccc12 showed an absorption maximum (in ClCCl) of 555 nm.

Compound O=Cc1ccc(C#CC(C#Cc2ccc(C=O)o2)=Cc2ccc(C=C(C#Cc3ccc(C=O)o3)C#Cc3ccc(C=O)o3)s2)o1 has an absorption maximum (in ClC(Cl)Cl) of 516 nm.

CN(C)c1ccc(C2=[N+]3C(=Nc4c(-c5ccc(OCCCCS(=O)(=O)[O-])cc5)cc(-c5ccc(N(C)C)cc5)n4[B-]3(F)F)C(c3ccc(OCCCCS(=O)(=O)[O-])cc3)=C2)cc1 gave an absorption maximum (in CS(C)=O) of 786 nm.

For CCCCCCCCCCCCc1ccc(-c2cc(C)[o+]c(C)c2)cc1, the absorption maximum (in CC#N) was 350 nm and the absorption maximum (in ClCCl) was 370 nm.

COc1nnc(Cl)nn1 gave an absorption maximum (in ClCCl) of 520 nm and an absorption maximum (in OCC(F)(F)F) of 518 nm.

In the case of O=P1(c2ccccc2)C2=C(c3ccccc31)S(=O)(=O)c1ccccc12 (stereo not drawn), the absorption maximum (in C1CCCCC1) is reported as 380 nm, the absorption maximum (in CC#N) is reported as 383 nm and the absorption maximum (in CCO) is reported as 386 nm. For the same compound, the absorption maximum (in ClCCl) was 386 nm.

For [O-][n+]1c(/C=C/C=C/c2ccccc2)nc(N2CCOCC2)c2c1CCCC2, the absorption maximum (in ClCCl) was 400 nm.

O=[N+]([O-])c1ccc(O)cc1 gave an absorption maximum (in CO) of 309 nm and an absorption maximum (in O) of 401 nm.

COc1ccc(N(c2ccc(OC)cc2)c2ccc(-c3ccc(-c4ccc5nc6ccccc6c(=O)n5c4)cc3)cc2)cc1 gave an absorption maximum (in ClCCl) of 367 nm.

c1ccc(-n2nc(-c3ccc(N4c5ccccc5Oc5ccccc54)cc3)nc2-c2ccccn2)cc1 showed an absorption maximum (in ClCCl) of 341 nm.

With c1ccc(-c2nc(-c3ccc(-c4ccc(-n5c6ccccc6c6ccccc65)cc4)cn3)oc2-c2ccccc2)cc1 the absorption maximum (in C1CCOC1) was 333 nm, the absorption maximum (in C1COCCO1) was 326 nm and the absorption maximum (in CC#N) was 330 nm. The absorption maximum (in CC(C)=O) was 333 nm, the absorption maximum (in CC(C)OC(C)C) was 334 nm and the absorption maximum (in CCCCCC) was 336 nm. For the same compound, the absorption maximum (in CCCCOCCCC) was 336 nm, the absorption maximum (in CCN(CC)CC) was 333 nm and the absorption maximum (in CCOC(C)=O) was 332 nm. The absorption maximum (in CCOCC) was 333 nm, the absorption maximum (in Cc1ccccc1) was 338 nm and the absorption maximum (in c1ccccc1) was 338 nm.

Work on COc1ccc(C2=Cc3ccccc3P2(=O)c2ccccc2)cc1 (stereo not drawn) yielded an absorption maximum (in C1CCOC1) of 362 nm and an absorption maximum (in ClCCl) of 365 nm.

Work on COc1c(C(C)=O)c(=O)oc2cc(N(C)C)ccc12 yielded an absorption maximum (in ClCCl) of 373 nm.

With CCCCn1c(-c2ccc(-c3nnc(-c4cccs4)o3)cc2)nc(-c2ccccc2)c1-c1ccccc1 the absorption maximum (in ClCCl) was 340 nm.

Cc1cnc(NC(=O)C2=C([O-])c3ccccc3S(=O)(=O)N2C)s1 showed an absorption maximum (in CC#N) of 371 nm, an absorption maximum (in CCCCO) of 369 nm and an absorption maximum (in CCCO) of 368 nm. For the same compound, the absorption maximum (in CCO) was 366 nm and the absorption maximum (in CO) was 364 nm.

In the case of O=C1CC(=O)Nc2cc(Cl)ccc2N1, the absorption maximum (in CS(C)=O) is reported as 298 nm.

In the case of CCCCC(CC)Cn1c2cc(C#N)ccc2c2cc(-c3ccc(N(c4ccccc4)c4ccccc4)cc3)c(C#N)cc21 (stereo not drawn), the absorption maximum (in ClCCl) is reported as 398 nm.

CC1=C(I)C(C)=[N+]2C1=C(c1c(-c3ccccn3)nc3ccccn13)c1c(C)c(I)c(C)n1[B-]2(F)F showed an absorption maximum (in ClCCl) of 554 nm.

Compound C(#Cc1cccc2cc(-c3ccccc3)c3cc(-c4cc[b-]5c(c4)c(-c4ccccc4)cc4cccc(C#Cc6ccccc6)[n+]54)cc[b-]3[n+]12)c1ccccc1 has an absorption maximum (in C1CCCCC1) of 546 nm.

Work on COc1ccc(C(=O)/C=C2\C(=O)Nc3ccccc32)cc1 yielded an absorption maximum (in C1COCCO1) of 337 nm, an absorption maximum (in CC#N) of 335 nm and an absorption maximum (in CC(C)(C)O) of 345 nm. The absorption maximum (in CC(C)O) was 345 nm, the absorption maximum (in CCCCO) was 345 nm and the absorption maximum (in CCOC(C)=O) was 339 nm. It also gave an absorption maximum (in CN(C)C=O) of 344 nm, an absorption maximum (in CO) of 343 nm and an absorption maximum (in ClCCl) of 339 nm. For the same compound, the absorption maximum (in O) was 347 nm.

O=C1C=C(Nc2ccc(F)cc2)C(=O)c2ccccc21 gave an absorption maximum (in CCCCCC) of 445 nm and an absorption maximum (in CO) of 461 nm.

Compound COc1ccccc1-c1nc2c3ccccc3c3ccccc3c2n1-c1ccc(C)cc1 has an absorption maximum (in Cc1ccccc1) of 359 nm.
